Data: ChEMBL document CHEMBL5321219, “Selective degradation of cellular BRD3 and BRD4-L promoted by PROTAC molecules in six cancer cell lines” (Eur J Med Chem, 2023)
Activity calls are given as the source filed them. The calls are words filed in the database; no cut-off is given here.

What was measured:
MM1.S [1] = test: Induction of cell cycle arrest in human MM1.S cells assessed as accumulation of cells at S phase at 3 nM incubated for 24 hrs by flow cytometry analysis (reference value: 22.37%); type: functional
HeLa = test: Antiproliferative activity against human HeLa cells assessed as cell growth inhibition measured after 4 days by CCK-8 assay; type: functional, cell-based; settings: 96 h
[2] = biological target: T1, Protein cereblon/Bromodomain-containing protein 2 (Homo sapiens) (UniProt P25440+Q96SW2); test: PROTAC activity at CRBN/BRD2 in human MCF7 cells assessed as induction of protein degradation at 30 nM measured around 24 hrs by Western blot analysis; type: cell-based
T1 sequence (P25440 whole entry, looked up): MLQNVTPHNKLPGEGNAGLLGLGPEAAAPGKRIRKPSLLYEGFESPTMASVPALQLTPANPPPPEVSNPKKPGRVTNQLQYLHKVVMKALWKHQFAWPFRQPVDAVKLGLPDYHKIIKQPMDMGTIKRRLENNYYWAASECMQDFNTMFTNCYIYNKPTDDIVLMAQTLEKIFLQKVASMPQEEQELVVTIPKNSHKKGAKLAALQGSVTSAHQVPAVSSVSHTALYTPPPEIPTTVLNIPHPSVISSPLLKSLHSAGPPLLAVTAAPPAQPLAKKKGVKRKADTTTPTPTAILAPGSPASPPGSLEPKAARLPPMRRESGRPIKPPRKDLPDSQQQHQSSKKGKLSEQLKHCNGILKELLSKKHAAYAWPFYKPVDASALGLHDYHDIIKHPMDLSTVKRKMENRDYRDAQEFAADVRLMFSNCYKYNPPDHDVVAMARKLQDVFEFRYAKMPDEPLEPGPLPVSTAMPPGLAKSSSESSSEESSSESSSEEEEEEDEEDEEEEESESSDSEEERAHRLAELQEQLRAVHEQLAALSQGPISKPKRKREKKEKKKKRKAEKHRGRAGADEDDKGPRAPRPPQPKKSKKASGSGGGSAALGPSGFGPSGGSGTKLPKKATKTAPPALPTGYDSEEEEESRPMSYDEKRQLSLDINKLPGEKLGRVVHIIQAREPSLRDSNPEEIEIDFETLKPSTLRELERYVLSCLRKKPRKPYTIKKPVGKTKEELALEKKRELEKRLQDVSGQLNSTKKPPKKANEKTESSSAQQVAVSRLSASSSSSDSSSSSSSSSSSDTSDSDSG
T1 sequence (Q96SW2 whole entry, looked up): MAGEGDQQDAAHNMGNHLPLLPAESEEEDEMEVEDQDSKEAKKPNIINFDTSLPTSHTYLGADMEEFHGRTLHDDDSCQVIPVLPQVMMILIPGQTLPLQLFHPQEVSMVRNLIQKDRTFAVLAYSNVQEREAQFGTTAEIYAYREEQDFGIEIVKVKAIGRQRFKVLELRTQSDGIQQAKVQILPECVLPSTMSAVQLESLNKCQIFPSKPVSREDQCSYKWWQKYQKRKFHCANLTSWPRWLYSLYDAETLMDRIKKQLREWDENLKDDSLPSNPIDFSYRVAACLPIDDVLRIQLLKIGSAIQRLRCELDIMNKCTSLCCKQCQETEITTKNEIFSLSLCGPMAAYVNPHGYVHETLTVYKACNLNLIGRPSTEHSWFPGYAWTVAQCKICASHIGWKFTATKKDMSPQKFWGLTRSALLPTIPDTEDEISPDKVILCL

MM1.S [3] = test: Downregulation of BRD4 expression in human MM1.S cells by proteomic analysis; type: functional, cell-based
[4] = biological target: T2, Protein cereblon/Bromodomain-containing protein 4 (Homo sapiens) (UniProt O60885+Q96SW2); test: PROTAC activity at CRBN/BRD4-L in human A549 cells assessed as induction of protein degradation measured after 24 hrs by Western blot analysis; type: cell-based; settings: dose 3-1000 nM
T2 sequence (Q96SW2 whole entry, looked up, other chains not shown): as the sequence (Q96SW2 whole entry, looked up) above

[5] = biological target: T3, Protein cereblon/Bromodomain-containing protein 3 (Homo sapiens) (UniProt Q15059+Q96SW2); test: PROTAC activity at CRBN/BRD3 in human MM1.S cells assessed as induction of protein degradation measured after 24 hrs by Western blot analysis; type: cell-based
T3 sequence (Q15059 2-726 limits assumed): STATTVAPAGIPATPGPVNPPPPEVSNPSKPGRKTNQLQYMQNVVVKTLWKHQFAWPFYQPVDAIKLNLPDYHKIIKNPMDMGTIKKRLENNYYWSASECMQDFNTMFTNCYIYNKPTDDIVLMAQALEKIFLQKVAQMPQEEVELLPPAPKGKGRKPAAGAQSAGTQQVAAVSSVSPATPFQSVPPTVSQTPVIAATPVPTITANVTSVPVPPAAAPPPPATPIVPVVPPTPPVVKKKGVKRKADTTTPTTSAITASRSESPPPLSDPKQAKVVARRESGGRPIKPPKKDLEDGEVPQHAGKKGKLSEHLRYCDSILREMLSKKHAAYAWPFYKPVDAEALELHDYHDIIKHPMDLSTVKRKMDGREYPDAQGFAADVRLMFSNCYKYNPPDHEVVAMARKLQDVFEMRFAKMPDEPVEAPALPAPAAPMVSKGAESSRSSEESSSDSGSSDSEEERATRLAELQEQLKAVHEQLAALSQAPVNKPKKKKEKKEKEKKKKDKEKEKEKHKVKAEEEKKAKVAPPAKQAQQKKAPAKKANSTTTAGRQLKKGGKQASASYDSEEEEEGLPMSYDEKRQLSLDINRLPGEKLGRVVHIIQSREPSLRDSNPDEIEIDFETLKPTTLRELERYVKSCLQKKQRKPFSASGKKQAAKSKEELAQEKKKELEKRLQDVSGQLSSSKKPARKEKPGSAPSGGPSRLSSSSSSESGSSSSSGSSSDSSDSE
T3 sequence (Q96SW2 whole entry partner): as the sequence (Q96SW2 whole entry, looked up) above

[6] = biological target: T2, Protein cereblon/Bromodomain-containing protein 4 (Homo sapiens); test: PROTAC activity at CRBN/BRD4-S in human MV4-11 cells assessed as induction of protein degradation at 0.1 to 30 nM measured after 24 hrs by Western blot analysis; type: cell-based; settings: dose 0.1-30 nM
HepG2 = test: Antiproliferative activity against human HepG2 cells assessed as cell growth inhibition measured after 4 days by CCK-8 assay; type: functional, cell-based; settings: HepG2, 96 h
[7] = biological target: T3, Protein cereblon/Bromodomain-containing protein 3 (Homo sapiens); test: PROTAC activity at CRBN/BRD3 in human MM1.S cells assessed as induction of protein degradation at 30 nM pretreated with 0.2 to 10 uM MG132 for 2 hrs followed by compound addition and measured after 4 hrs by Western blot analysis; type: cell-based
MM1.S [8] = test: Induction of cell cycle arrest in human MM1.S cells assessed as accumulation of cells at G1 phase at 1 nM incubated for 24 hrs by flow cytometry analysis (reference value: 56.32%); type: functional
[9] = biological target: T2, Protein cereblon/Bromodomain-containing protein 4 (Homo sapiens); test: PROTAC activity at CRBN/BRD4-L in human HepG2 cells assessed as induction of protein degradation measured after 24 hrs by Western blot analysis; type: cell-based; settings: dose 10-3000 nM
[10] = biological target: T3, Protein cereblon/Bromodomain-containing protein 3 (Homo sapiens); test: PROTAC activity at CRBN/BRD3 in human MM1.S cells assessed as induction of protein degradation at 2 nM measured after 24 hrs by Western blot analysis; type: cell-based
A549 = test: Antiproliferative activity against human A549 cells assessed as cell growth inhibition measured after 4 days by CCK-8 assay; type: functional, cell-based; settings: A549, 96 h
[11] = biological target: T3, Protein cereblon/Bromodomain-containing protein 3 (Homo sapiens); test: PROTAC activity at CRBN/BRD3 in human MCF7 cells assessed as induction of protein degradation at 30 nM by Western blot analysis; type: cell-based; settings: time 1-3 hrs, TDE = time-dependent effect
MM1.S [12] = test: Induction of cell cycle arrest in human MM1.S cells assessed as accumulation of cells at G1 phase at 3 nM incubated for 24 hrs by flow cytometry analysis (reference value: 56.32%); type: functional
MCF7 = test: Antiproliferative activity against human MCF7 cells assessed as cell growth inhibition measured after 4 days by CCK-8 assay; type: functional, cell-based; settings: MCF7, 96 h
[13] = biological target: T2, Protein cereblon/Bromodomain-containing protein 4 (Homo sapiens); test: PROTAC activity at CRBN/BRD4-L in human HGC-27 cells assessed as induction of protein degradation at 30 nM measured after 8 to 24 hrs by Western blot analysis; type: cell-based; settings: time 8-24 hrs
[14] = biological target: T2, Protein cereblon/Bromodomain-containing protein 4 (Homo sapiens); test: PROTAC activity at CRBN/BRD4-S in human MCF7 cells assessed as induction of protein degradation at 1 to 300 nM measured after 24 hrs by Western blot analysis; type: cell-based; settings: dose 1-300 nM
[15] = biological target: T2, Protein cereblon/Bromodomain-containing protein 4 (Homo sapiens); test: PROTAC activity at CRBN/BRD4-L in human HeLa cells assessed as induction of protein degradation measured after 24 hrs by Western blot analysis; type: cell-based; settings: dose 1-300 nM
[16] = biological target: T2, Protein cereblon/Bromodomain-containing protein 4 (Homo sapiens); test: PROTAC activity at CRBN/BRD4-L in human MM1.S cells assessed as induction of protein degradation at 30 nM measured after 3 to 6 hrs by Western blot analysis; type: cell-based; settings: time 3-6 hrs
[17] = biological target: T2, Protein cereblon/Bromodomain-containing protein 4 (Homo sapiens); test: PROTAC activity at CRBN/BRD4-L in human MCF7 cells assessed as induction of protein degradation measured after 24 hrs by Western blot analysis; type: cell-based; settings: dose 1-300 nM
[18] = biological target: T2, Protein cereblon/Bromodomain-containing protein 4 (Homo sapiens); test: PROTAC activity at CRBN/BRD4-S in human A549 cells assessed as induction of protein degradation at 3 to 1000 nM measured after 24 hrs by Western blot analysis; type: cell-based; settings: dose 3-1000 nM
MM1.S [19] = test: Induction of cell cycle arrest in human MM1.S cells assessed as accumulation of cells at G2 phase at 100 nM incubated for 24 hrs by flow cytometry analysis (reference value: 14.68%); type: functional
[20] = biological target: T1, Protein cereblon/Bromodomain-containing protein 2 (Homo sapiens); test: PROTAC activity at CRBN/BRD2 in human A549 cells assessed as induction of protein degradation at 3 to 1000 nM measured after 24 hrs by Western blot analysis; type: cell-based; settings: dose 3-1000 nM
MM1.S [21] = test: Induction of cell cycle arrest in human MM1.S cells assessed as accumulation of cells at S phase at 1 nM incubated for 24 hrs by flow cytometry analysis (reference value: 22.37%); type: functional
[22] = biological target: T3, Protein cereblon/Bromodomain-containing protein 3 (Homo sapiens); test: PROTAC activity at CRBN/BRD3 in human HeLa cells assessed as induction of protein degradation measured after 24 hrs by Western blot analysis; type: cell-based; settings: dose 1-300 nM
MM1.S [23] = test: Induction of cell cycle arrest in human MM1.S cells assessed as accumulation of cells at G1 phase at 10 nM incubated for 24 hrs by flow cytometry analysis (reference value: 56.32%); type: functional
[24] = biological target: Bromodomain-containing protein 3 (Homo sapiens, UniProt Q15059); test: Binding affinity to recombinant human BRD3 BD1 (24 to 144 residues) assessed as inhibition constant by fluorescence polarization binding assay
Bromodomain-containing protein 3, sequence (Q15059 whole entry, the tested form may be a part): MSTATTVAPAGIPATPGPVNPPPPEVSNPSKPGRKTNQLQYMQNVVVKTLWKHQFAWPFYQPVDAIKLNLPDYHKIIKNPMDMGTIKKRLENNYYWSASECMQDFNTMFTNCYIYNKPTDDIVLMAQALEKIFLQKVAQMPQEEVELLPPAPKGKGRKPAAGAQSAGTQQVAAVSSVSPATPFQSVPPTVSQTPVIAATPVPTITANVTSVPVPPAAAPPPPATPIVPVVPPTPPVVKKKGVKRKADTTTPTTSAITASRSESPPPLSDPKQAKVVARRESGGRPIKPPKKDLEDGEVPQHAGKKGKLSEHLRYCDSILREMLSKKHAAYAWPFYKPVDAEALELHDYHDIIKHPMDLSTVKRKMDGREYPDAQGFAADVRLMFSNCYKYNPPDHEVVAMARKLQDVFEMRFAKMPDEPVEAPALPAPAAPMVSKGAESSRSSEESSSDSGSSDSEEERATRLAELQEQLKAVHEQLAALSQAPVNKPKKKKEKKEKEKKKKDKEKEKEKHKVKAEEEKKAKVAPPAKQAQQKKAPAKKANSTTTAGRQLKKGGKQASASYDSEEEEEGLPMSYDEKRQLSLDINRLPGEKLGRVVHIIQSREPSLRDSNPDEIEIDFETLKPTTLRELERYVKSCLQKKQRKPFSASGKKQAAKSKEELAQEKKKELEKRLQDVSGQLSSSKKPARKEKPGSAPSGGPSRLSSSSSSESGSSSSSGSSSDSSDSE

[25] = biological target: T2, Protein cereblon/Bromodomain-containing protein 4 (Homo sapiens); test: PROTAC activity at CRBN/BRD4-S in human HGC-27 cells assessed as induction of protein degradation at 0.1 to 30 nM measured after 24 hrs by Western blot analysis; type: cell-based; settings: dose 0.1-30 nM
[26] = biological target: T3, Protein cereblon/Bromodomain-containing protein 3 (Homo sapiens); test: PROTAC activity at CRBN/BRD3 in human HepG2 cells assessed as induction of protein degradation measured after 24 hrs by Western blot analysis; type: cell-based; settings: dose 10-3000 nM
[27] = biological target: T2, Protein cereblon/Bromodomain-containing protein 4 (Homo sapiens); test: PROTAC activity at CRBN/BRD4-L in human MM1.S cells assessed as induction of protein degradation at 30 nM pretreated with lenalidomide for 2 hrs followed by compound addition and measured after 4 hrs by Western blot analysis; type: cell-based
[28] = biological target: T1, Protein cereblon/Bromodomain-containing protein 2 (Homo sapiens); test: PROTAC activity at CRBN/BRD2 in human U-937 cells assessed as induction of protein degradation by Western blot analysis; type: cell-based
[29] = biological target: T2, Protein cereblon/Bromodomain-containing protein 4 (Homo sapiens); test: PROTAC activity at CRBN/BRD4-L in human MM1.S cells assessed as induction of protein degradation at 30 nM pretreated with 0.2 to 10 uM MG132 for 2 hrs followed by compound addition and measured after 4 hrs by Western blot analysis; type: cell-based
HGC-27 = test: Antiproliferative activity against human HGC-27 cells assessed as cell growth inhibition measured after 4 days by CCK-8 assay; type: functional, cell-based; settings: HGC-27, 96 h

## Cc1nnc2n1-c1ccc(-c3ccc(CNCCCCc4cccc5c4CN(C4CCC(=O)NC4=O)C5=O)cc3)cc1C(Nc1ccc(Cl)cc1)CC2 (centres undefined)
MM1.S [1]
  Activity: 17.72%
HeLa
  IC50: 6.96 µM
[2]
  Activity: Active
MM1.S [3]
  Activity: Active
[4]
  Activity: Dose-Dependent Effect
[5]
  Activity: Dose-Dependent Effect
[6]
  Activity: Active
HepG2
  IC50: 17.2 µM
[7]
  Activity: inactive
MM1.S [8]
  Activity: 58.49%
[9]
  Activity: Dose-Dependent Effect
[10]
  Activity: Active
A549
  IC50: 14.3 µM
[11]
  Activity: Tde
MM1.S [12]
  Activity: 62.34%
MCF7
  IC50: 0.23 µM
[13]
  Activity: Active
[14]
  Activity: inactive
[15]
  Activity: Dose-Dependent Effect
[16]
  Activity: Active
[17]
  Activity: Dose-Dependent Effect
[18]
  Activity: inactive
MM1.S [19]
  Activity: 16.63%
[20]
  Activity: inactive
MM1.S [21]
  Activity: 21.35%
[22]
  Activity: Dose-Dependent Effect
MM1.S [23]
  Activity: 63.9%
[24]
  Ki: 0.012 µM
[25]
  Activity: inactive
[26]
  Activity: Dose-Dependent Effect
[27]
  Activity: inactive
[28]
  Activity: Dose-Dependent Effect
[29]
  Activity: inactive
HGC-27
  IC50: 2.35 µM
